The text below walks through data of patent publication US10273236B2, “Macrocyclic factor XIa inhibitors bearing heterocyclic groups” (Bristol-Myers Squibb Company, priority 2014, dated 2019).

Experiment [1] concerns the target T1, purified human Factor XIa (Homo sapiens, UniProt P03951).
T1 construct: purchased Haematologic Technologies
Kind of experiment: Factor XIa inhibition assay, chromogenic substrate S-2366 (Ki). The class given is biochemical. On the procedure: (§1) The effectiveness of compounds of the present invention as inhibitors of the coagulation Factors XIa, VIIa, IXa, Xa, XIIa, plasma kallikrein or thrombin, can be determined using a relevant purified serine protease, respectively, and an appropriate synthetic substrate. The rate of hydrolysis of the chromogenic or fluorogenic substrate by the relevant serine protease was measured both in the absence and presence of compounds of the present invention. […] A decrease in the rate of absorbance or fluorescence change in the presence of inhibitor is indicative of enzyme inhibition. Such methods are known to one skilled in the art. The results of this assay are expressed as the inhibitory constant, Ki.
Factor XIa determinations were made in 50 mM HEPES buffer at pH 7.4 containing 145 mM NaCl, 5 mM KCl, and 0.1% PEG 8000 (polyethylene glycol; JT Baker or Fisher Scientific). Determinations were made using purified human Factor XIa at a final concentration of 25-200 pM (Haematologic Technologies) and the synthetic substrate S-2366 (pyroGlu-Pro-Arg-pNA; Chromogenix or AnaSpec) at a concentration of 0.0002-0.001 M.
(§2) Values of Ki were determined by allowing the protease to react with the substrate in the presence of the inhibitor.
(§3) Reactions were allowed to go for periods of 20-180 minutes (depending on the protease) and the velocities (rate of absorbance or fluorescence change versus time) were measured.
(§4) The following relationships were used to calculate Ki values: (Vmax*S)/(Km+S) (vo−vs)/vs=I/(Ki(1+S/Km)) for a competitive inhibitor with one binding site; or vs/vo=A+((B−A)/1+((IC50/(I)^n))); and Ki=IC50/(1+S/Km) for a competitive inhibitor where: […]

The target of experiment [2] is T2, purified human plasma kallikrein (Homo sapiens, UniProt P03952).
T2 construct: Plasma prekallikrein is a zymogen of a trypsin-like serine protease; purchased Enzyme Research Laboratories
T2 sequence (P03952 391-638 limits assumed): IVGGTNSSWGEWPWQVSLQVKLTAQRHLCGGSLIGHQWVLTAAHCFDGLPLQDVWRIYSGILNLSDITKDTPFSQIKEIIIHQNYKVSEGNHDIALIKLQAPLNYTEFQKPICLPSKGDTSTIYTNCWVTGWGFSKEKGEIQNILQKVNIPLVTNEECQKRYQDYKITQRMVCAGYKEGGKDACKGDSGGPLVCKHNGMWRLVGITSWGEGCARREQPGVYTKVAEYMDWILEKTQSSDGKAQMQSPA
T2 sequence (P03952 20-390 partner limits assumed): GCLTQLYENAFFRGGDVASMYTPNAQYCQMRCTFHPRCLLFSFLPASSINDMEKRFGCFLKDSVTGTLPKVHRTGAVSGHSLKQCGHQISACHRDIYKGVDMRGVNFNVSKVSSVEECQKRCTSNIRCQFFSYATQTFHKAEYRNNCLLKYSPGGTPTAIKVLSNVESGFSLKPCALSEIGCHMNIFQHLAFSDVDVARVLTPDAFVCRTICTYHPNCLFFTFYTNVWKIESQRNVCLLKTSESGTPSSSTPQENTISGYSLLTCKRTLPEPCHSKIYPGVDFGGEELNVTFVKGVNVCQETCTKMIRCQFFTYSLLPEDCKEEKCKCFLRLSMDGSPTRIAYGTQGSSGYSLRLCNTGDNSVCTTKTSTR
Kind of experiment: Plasma kallikrein inhibition assay, chromogenic substrate S-2302 (Ki). It counts as biochemical. On the procedure:
as §1
Plasma kallikrein determinations were made in 0.1 M sodium phosphate buffer at a pH of 7.5 containing 0.1-0.2 M sodium chloride and 0.5% PEG 8000. Determinations were made using purified human plasma kallikrein (Enzyme Research Laboratories) at a final assay concentration of 200 pM and the synthetic substrate S-2302 (H-(D)-Pro-Phe-Arg-pNA; Chromogenix) at a concentration of 0.00008-0.0004 M.
as §2, §3, §4

Molecules are shown by their SMILES.

T1 sequence (P03951 388-625 limits assumed): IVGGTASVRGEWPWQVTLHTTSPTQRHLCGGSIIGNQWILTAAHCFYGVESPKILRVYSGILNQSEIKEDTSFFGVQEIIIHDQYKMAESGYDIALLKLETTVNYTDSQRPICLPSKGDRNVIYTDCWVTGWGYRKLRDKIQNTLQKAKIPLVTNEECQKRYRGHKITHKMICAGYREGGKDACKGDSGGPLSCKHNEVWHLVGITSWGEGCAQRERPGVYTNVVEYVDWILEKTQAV
T1 sequence (P03951 19-387 partner limits assumed): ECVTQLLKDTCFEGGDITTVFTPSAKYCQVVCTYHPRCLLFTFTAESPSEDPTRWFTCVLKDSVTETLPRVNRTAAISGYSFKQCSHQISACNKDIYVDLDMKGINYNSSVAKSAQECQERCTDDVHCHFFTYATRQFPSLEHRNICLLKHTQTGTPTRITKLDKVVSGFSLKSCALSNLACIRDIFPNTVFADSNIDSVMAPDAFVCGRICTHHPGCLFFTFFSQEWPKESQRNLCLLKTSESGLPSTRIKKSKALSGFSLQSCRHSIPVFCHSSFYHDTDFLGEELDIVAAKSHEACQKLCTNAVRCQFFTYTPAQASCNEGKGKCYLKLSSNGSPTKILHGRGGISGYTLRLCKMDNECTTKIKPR

Take `C[C@@H]1CCC[C@H](N2CCC(c3c(C(C)(F)F)ccc(Cl)c3F)=CC2=O)c2cc(ccn2)-c2c(cnn2C)NC1=O` [Example 33, (9R,13S)-13-{4-[3-chloro-6-(1,1-difluoroethyl)-2-fluorophenyl]-6-oxo-1,2,3,6-tetrahydropyridin-1-yl}-3,9-dimethyl-3,4,7,15-tetraazatricyclo[12.3.1.0^2,6]octadeca-1(18),2(6),4,14,16-pentaen-8-one]: the Ki turned out to be 5.7 nM in experiment [1] and 50 nM in experiment [2].
For the molecule `C[C@@H]1CCC[C@H](N2CCC(c3cc(Cl)ccc3-n3cc(Cl)nn3)=CC2=O)c2cc(ccn2)-c2c(cnn2CCOC(C)(C)C)NC1=O` [Example 34, (9R,13S)-3-[2-(tert-butoxy)ethyl]-13-{4-[5-chloro-2-(4-chloro-1H-1,2,3-triazol-1-yl)phenyl]-6-oxo-1,2,3,6-tetrahydropyridin-1-yl}-9-methyl-3,4,7,15-tetraazatricyclo[12.3.1.0^2,6]octadeca-1(18),2(6),4,14,16-pentaen-8-one], the values for the Ki in experiment [1] and in experiment [2] were 1.1 nM and 50 nM, respectively.
For `C[C@@H]1CCC[C@H](N2CCC(c3cc(Cl)ccc3-n3cc(Cl)nn3)=CC2=O)c2cc(ccn2)-c2c(cnn2CCO)NC1=O` [Example 35, (9R,13S)-13-{4-[5-chloro-2-(4-chloro-1H-1,2,3-triazol-1-yl)phenyl]-6-oxo-1,2,3,6-tetrahydropyridin-1-yl}-3-(2-hydroxyethyl)-9-methyl-3,4,7,15-tetraazatricyclo[12.3.1.0^2,6]octadeca-1(18),2(6),4,14,16-pentaen-8-one] the same measures were 0.82 nM and 32 nM.
As for `C[C@@H]1CCC[C@H](N2CCC(c3c(Br)ccc(Cl)c3F)=CC2=O)c2cc(ccn2)-c2c(cnn2C)NC1=O` [Example 36, (9R,13S)-13-[4-(6-bromo-3-chloro-2-fluorophenyl)-6-oxo-1,2,3,6-tetrahydropyridin-1-yl]-3,9-dimethyl-3,4,7,15-tetraazatricyclo[12.3.1.0^2,6]octadeca-1(18),2(6),4,14,16-pentaen-8-one], the Ki in experiment [1] was 1.7 nM; in experiment [2] it was 5 nM.
The matching figures for `C[C@@H]1CCC[C@H](N2CCC(c3cc(Cl)ccc3Br)=CC2=O)c2cc(ccn2)-c2c(cnn2C)NC1=O` [Example 37, (9R,13S)-13-[4-(2-bromo-5-chlorophenyl)-6-oxo-1,2,3,6-tetrahydropyridin-1-yl]-3,9-dimethyl-3,4,7,15-tetraazatricyclo[12.3.1.0^2,6]octadeca-1(18),2(6),4,14,16-pentaen-8-one]: 4.7 nM and 16 nM.
The matching figures for `C[C@@H]1CCC[C@H](N2CCC(c3cc(Cl)ccc3-c3cnn(C(F)F)c3)=CC2=O)c2cc(ccn2)-c2c(cnn2C)NC1=O` [Example 38, (9R,13S)-13-(4-{5-chloro-2-[1-(difluoromethyl)-1H-pyrazol-4-yl]phenyl}-6-oxo-1,2,3,6-tetrahydropyridin-1-yl)-3,9-dimethyl-3,4,7,15-tetraazatricyclo[12.3.1.0^2,6]octadeca-1(18),2(6),4,14,16-pentaen-8-one]: 1.8 nM and 120 nM.
Regarding `C[C@@H]1CCC[C@H](N2CCC(c3c(C#N)ccc(Cl)c3F)=CC2=O)c2cc(ccn2)-c2c(cnn2C)NC1=O` [Example 39, 4-chloro-2-{1-[(9R,13S)-3,9-dimethyl-8-oxo-3,4,7,15-tetraazatricyclo[12.3.1.0^2,6]octadeca-1(18),2(6),4,14,16-pentaen-13-yl]-6-oxo-1,2,3,6-tetrahydropyridin-4-yl}-3-fluorobenzonitrile], the Ki in experiment [1] turned out to be 1.1 nM; in experiment [2], 120 nM.
`C[C@@H]1CCC[C@H](N2CCC(c3cc(Cl)ccc3-n3cc(C(F)(F)F)nn3)=CC2=O)c2cc(ccn2)-c2c(cnn2C)NC1=O` [Example 40, (9R,13S)-13-(4-{5-chloro-2-[4-(trifluoromethyl)-1H-1,2,3-triazol-1-yl]phenyl}-6-oxo-1,2,3,6-tetrahydropyridin-1-yl)-3,9-dimethyl-3,4,7,15-tetraazatricyclo[12.3.1.0^2,6]octadeca-1(18),2(6),4,14,16-pentaen-8-one]: the Ki in experiment [1] is 0.1 nM; in experiment [2], 6 nM.
On to `C[C@@H]1CCC[C@H](N2CCC(c3c(-c4cnn(C(F)F)c4)ccc(Cl)c3F)=CC2=O)c2cc(ccn2)-c2c(cnn2C)NC1=O` [Example 41, (9R,13S)-13-(4-{3-chloro-6-[1-(difluoromethyl)-1H-pyrazol-4-yl]-2-fluorophenyl}-6-oxo-1,2,3,6-tetrahydropyridin-1-yl)-3,9-dimethyl-3,4,7,15-tetraazatricyclo[12.3.1.0^2,6]octadeca-1(18),2(6),4,14,16-pentaen-8-one], for which the Ki in experiment [1] is 1 nM; in experiment [2] it was 34 nM.
For `[2H]C([2H])([2H])n1ncc2c1-c1ccnc(c1)[C@@H](N1CCC(c3cc(Cl)ccc3-n3cc(C(F)(F)F)nn3)=CC1=O)CCC[C@@H](C)C(=O)N2` [Example 42, (9R,13S)-13-(4-{5-chloro-2-[4-(trifluoromethyl)-1H-1,2,3-triazol-1-yl]phenyl}-6-oxo-1,2,3,6-tetrahydropyridin-1-yl)-3-(^2H3)methyl-9-methyl-3,4,7,15-tetraazatricyclo[12.3.1.0^2,6]octadeca-1(18),2(6),4,14,16-pentaen-8-one], the Ki is 0.1 nM in experiment [1] and 7 nM in experiment [2].
Turning to `C[C@@H]1CCC[C@H](N2CCC(c3cc(Cl)ccc3-n3cc(Cl)nn3)=CC2=O)c2cccc(n2)-c2c(cnn2C)NC1=O` [Example 43, (9R,13S)-13-{4-[5-chloro-2-(4-chloro-1H-1,2,3-triazol-1-yl)phenyl]-6-oxo-1,2,3,6-tetrahydropyridin-1-yl}-3,9-dimethyl-3,4,7,18-tetraazatricyclo[12.3.1.0^2,6]octadeca-1(18),2(6),4,14,16-pentaen-8-one], the Ki was 4.1 nM in experiment [1] and 110 nM in experiment [2].
For `C[C@@H]1CCC[C@H](n2ccc(-c3c(Cl)ccc(Cl)c3F)cc2=O)c2cc(ccn2)-c2c(cnn2C)NC1=O` [Example 44, (9R,13S)-13-[4-(3,6-dichloro-2-fluorophenyl)-2-oxo-1,2-dihydropyridin-1-yl]-3,9-dimethyl-3,4,7,15-tetraazatricyclo[12.3.1.0^2,6]octadeca-1(18),2(6),4,14,16-pentaen-8-one] the same measures were 2.2 nM and 5.7 nM.
Regarding `CCn1ncc2c1-c1ccnc(c1)[C@@H](N1CCC(c3c(F)ccc(Cl)c3F)=CC1=O)CCC[C@@H](C)C(=O)N2` [Example 45, (9R,13S)-13-[4-(3-chloro-2,6-difluorophenyl)-6-oxo-1,2,3,6-tetrahydropyridin-1-yl]-3-ethyl-9-methyl-3,4,7,15-tetraazatricyclo[12.3.1.0^2,6]octadeca-1(18),2(6),4,14,16-pentaen-8-one], the Ki worked out at 13 nM in experiment [1] and 54 nM in experiment [2].
Consider `CC(=O)c1ccc(Cl)c(F)c1C1=CC(=O)N([C@H]2CCC[C@@H](C)C(=O)Nc3cnn(C)c3-c3ccnc2c3)CC1` [Example 46, (9R,13S)-13-[4-(6-acetyl-3-chloro-2-fluorophenyl)-6-oxo-1,2,3,6-tetrahydropyridin-1-yl]-3,9-dimethyl-3,4,7,15-tetraazatricyclo[12.3.1.0^2,6]octadeca-1(18),2(6),4,14,16-pentaen-8-one], for which the figures for the Ki in experiment [1] and in experiment [2] were 3.5 nM and 46 nM, respectively.
Consider `C[C@@H]1CCC[C@H](N2CCC(c3c(C(F)(F)F)ccc(Cl)c3F)=CC2=O)c2cc(ccn2)-c2nn(-c3cncnc3)cc2NC1=O` [Example 47, (9R,13S)-13-{4-[3-chloro-2-fluoro-6-(trifluoromethyl)phenyl]-6-oxo-1,2,3,6-tetrahydropyridin-1-yl}-9-methyl-4-(pyrimidin-5-yl)-3,4,7,15-tetraazatricyclo[12.3.1.0^2,6]octadeca-1(18),2,5,14,16-pentaen-8-one], for which the Ki was found to be 5.4 nM in experiment [1] and 13 nM in experiment [2].
For the molecule `C[C@@H]1CCC[C@H](N2CCC(c3cc(Cl)ccc3-n3cc(Cl)nn3)=CC2=O)c2cccc(c2)-c2c(cnn2C)NC1=O` [Example 48, (9R,13S)-13-{4-[5-chloro-2-(4-chloro-1H-1,2,3-triazol-1-yl)phenyl]-6-oxo-1,2,3,6-tetrahydropyridin-1-yl}-3,9-dimethyl-3,4,7-triazatricyclo[12.3.1.0^2,6]octadeca-1(18),2(6),4,14,16-pentaen-8-one], the figures for the Ki in experiment [1] and in experiment [2] were 0.13 nM and 5.5 nM, respectively.
